# Assays:
# [1] = test system: mitotic cells in the ventricular zone (VZ); assay: symmetric versus asymmetric divisions (Par3 distribution) in the ventricular zone of mouse embryos; assay type: in vivo; conditions: topical or oral administration to pregnant mice
# Source text: Taking advantage of the ready uptake and penetration through the placental barrier of applicant's small molecule Wnt modulators, applicant designed a series of experiments to investigate symmetric versus asymmetric divisions in the ventricular zone (VZ) of the brain during mouse embryonic development. Timed pregnant mice were topically treated for various time periods (1-3 days) with DMSO (vehicle control), the CBP/catenin antagonist ICG-001 or the p300/catenin antagonist IQ-1. Using a previously described protocol (56), the localization of […] (Par3) and DNA was examined in mitotic cells in the VZ. Par3 distributes symmetrically in cells that divide symmetrically and asymmetrically in cells that divide asymmetrically, whereas the DNA distributes symmetrically between the 2 cells. Using fluorescence microscopy, the percentage of mitotic cells dividing symmetrically or asymmetrically could be quantified. […] Antagonizing the CBP/catenin interaction with ICG-001 had no apparent effect yielding similarly, approximately 21% asymmetric divisions. […] Importantly, this decrease in asymmetric divisions upon treatment with IQ-1 could be rescued back essentially to control levels (i.e. ˜21%) by treatment with a 2-fold excess of ICG-001. Even further divergence in symmetric versus asymmetric divisions could be seen upon prolonged treatments. For example, treatment with IQ-1 (i.e., antagonizing p300/catenin interaction leading to increased usage of CBP) for 3 days (E13.5-16.5) decreased asymmetric divisions compared to control from 31% to 7%. […] This reporter mouse expresses EGFP, driven by the Tis21 promoter, in cells that have undergone neurogenic differentiative divisions.
# For example, Bultje et al (Bultje R Neuron 63, 189-202, 2009) describe an assay to measure asymmetric distributions in the ventricular zone (vz) to evaluate asymmetric divisions during neurogenesis. Essentially this involves treating the animal (either adult or in utero) for a set period of time with compounds (either p.o., s.c., i.v. or topically) with compounds and then sacrificing the animal and examining the Par3 distribution (e.g., via immunohistochemistry) in mitotic cells vs. DNA distribution (e.g., using DAPI staining) Par3 distributes equally among the two daughter cells during symmetric division and unequally (essentially all in one daughter cell) during asymmetric differentiation.
# [2] = topical treatment of pregnant mice throughout pregnancy, offspring outcome; assay type: in vivo, mouse; conditions: mothers treated topically 0.5M
# Source text: Acute Promyelocytic Leukemia (APL) is unique among myeloid leukemias due to its sensitivity to all-trans retinoic acid (ATRA), a derivative of vitamin A. Treatment with ATRA dissociates the NCOR-HDACL complex from RAR and allows DNA transcription and differentiation of the immature leukemic promyelocytes into mature granulocytes by targeting the oncogenic transcription factor and its aberrant action. […] A large number of scientific studies have also investigated a possible role for vitamin D in cancer prevention, including colon, prostate, breast, pancreatic and skin cancer. […] However, there are also reports of synergistic effects on the activation of gene expression by ATRA and Wnt for example (47). […] This is the same region of these coactivator proteins (i.e., CBP and p300) that partners with catenin (both beta and gamma) and the CBP/catenin antagonists (e.g., ICG-001) also bind to this region. These nuclear receptor ligands have many of the same differentiating effects on stem cell populations that applicant has observed with specific CBP/catenin antagonists. Although, both Vitamin A and D are required during development and have many beneficial health effects in adulthood, both are teratogenic at high levels. […]
# aquaporin 1 = assay: ex vivo human skin assay, qRT-PCR of aquaporin 1; assay type: cell-based; conditions: 24 hrs; 5 uM ICG-001, 5 uM methylated ICG-001, 1 ug/ml RA
# Protocol: (§1) Methods. Ex Vivo human skin assay culture conditions were based upon a paper by Varani J et al Experimental and Molecular Pathology, 2004.
# (§2) Briefly, human skin (surgical waste from plastic surgery procedures) was obtained and the subcutaneous layer of fat was trimmed manually with a scalpel. The skin was then cut into small fragments about 2 mm square and placed in 6 well plates. 1 ml of keratinocyte culture medium (Gibco 10724-011) with 1% P/S (penstrep antibiotic) was added to each well. The epidermis, bathed in media was placed facing up. On the next day (overnight culture in the media above), the skin fragments were transferred to fresh wells that contained either 5 uM ICG-001, 5-uM methylated ICG-001 or 1 ug/ml of retinoic acid (RA). After 24 hrs, skin samples in culture were removed for RNA isolation and qRT-PCR analysis of genes of interest (e.g. elastin (a gene involved in skin appearance and pliability (e.g., wrinkling) and aquaporin 1, which is involved with hydration.
# [3] = test system: drug resistant leukemia stem cells; assay: NOD/SCID/IL2rγ-/- mouse model of engrafted human CML; assay type: in vivo
# Source text: Chronic myelogenous leukemia (CML). Despite the stunning clinical success achieved to date in chronic phase CML patients treated with the BCR-ABL antagonist Gleevec/Imatinib (IM), responses in advanced phase patients are often short-lived, and patients invariably undergo disease progression. Furthermore, resistance to IM develops in 2% to 4% of patients annually and IM dose escalation is generally not sufficient to control the disease. Several mechanisms that contribute to tyrosine kinase inhibitor (TKI) resistance have been proposed including the insensitivity of quiescent CML stem cells to TKIs due to low expression of BCR-ABL and the emergence of drug resistant leukemic clones associated with increased nuclear catenin levels, a hallmark of increased Wnt/catenin transcription. […] Epigenetic silencing of negative regulators of the Wnt signaling cascade is also frequently associated with leukemias, including CML. […] The mice treated with one course (28 days from day 13-41 after leukemia engraftment) of CBP/catenin antagonist plus bcr-abl antagonist are essentially cured of leukemia and live as long (approximately 2 years) as their littermates that were never engrafted with leukemia.
# elastin = assay: ex vivo human skin assay, qRT-PCR of elastin; assay type: cell-based; conditions: 24 hrs; 5 uM ICG-001, 5 uM methylated ICG-001, 1 ug/ml RA
# Protocol: as §1, §2
smiles,measurement,setting,value
O=C1[C@H](Cc2ccc(O)cc2)N2C(=O)CCN(C(=O)NCc3ccccc3)[C@H]2CN1Cc1cccc2ccccc12 [ICG-001],effect on number of asymmetric divisions,[1],does not affect the number of asymmetric divisions
same,weight and size of offspring at 6 weeks of age,[2]; ~E0.5 to ~E20,normal weight and size
same,effects on germ cell populations of offspring,[2]; second generation bred,no deleterious effects on germ cell populations
same,expression of aquaporin 1,aquaporin 1,increase
same,effect on normal endogenous hematopoiesis,"[3]; mouse, in vivo",without deleterious effects to normal endogenous hematopoiesis
same,elimination of drug resistant leukemia stem cells,[3]; with bcr-abl antagonist,drug resistant leukemia stem cells can be eliminated
same,expression of elastin,elastin,increase
